From the supplement of paper PMC10307832

Key:
Experiment in all cases: relative viability (nuclei count vs DMSO), 5 days (fraction); higher = more cells survive
R406 + Bortezomib = compound: COc1cc(Nc2ncc(F)c(Nc3ccc4c(n3)NC(=O)C(C)(C)O4)n2)cc(OC)c1OC [R406] + CC(C)C[C@H](NC(=O)[C@H](Cc1ccccc1)NC(=O)c1cnccn1)B(O)O [Bortezomib] (partner 0.002 µM)
Method in brief: (§1)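 After 5 days of treatment, lung cancer cells in 1536-well plates were fixed and stained in a single step (final 0.05% Triton X-100, 1% formaldehyde, 1 ug/ml Hoechst) and their nuclei counted on 4× images. Treatment had been applied by pin tool the day after seeding as one drug alone or as a fixed anchor-drug dose with five library-drug doses (not always all listed) in √10 steps. Relative viability is the nuclei count of treated wells divided by that of vehicle wells, and values are medians of duplicate plates.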

Daporinad + Bortezomib = compound: O=C(/C=C/c1cccnc1)NCCCCC1CCN(C(=O)c2ccccc2)CC1 [Daporinad] + CC(C)C[C@H](NC(=O)[C@H](Cc1ccccc1)NC(=O)c1cnccn1)B(O)O [Bortezomib] (partner 0.002 µM)
Method in brief: as §1

R406 + Crizotinib = compound: COc1cc(Nc2ncc(F)c(Nc3ccc4c(n3)NC(=O)C(C)(C)O4)n2)cc(OC)c1OC [R406] + C[C@@H](Oc1cc(-c2cnn(C3CCNCC3)c2)cnc1N)c1c(Cl)ccc(F)c1Cl [Crizotinib] (partner 1 µM)
Method in brief: as §1

Daporinad + AZD7762 = compound: O=C(/C=C/c1cccnc1)NCCCCC1CCN(C(=O)c2ccccc2)CC1 [Daporinad] + NC(=O)Nc1cc(-c2cccc(F)c2)sc1C(=O)N[C@H]1CCCNC1 [AZD7762] (partner 0.2 µM)
Method in brief: as §1

| Cell Line | relative viability (R406 + Bortezomib; first compound 0.08 µM) | relative viability (R406 + Bortezomib; first compound 0.253 µM) | relative viability (R406 + Bortezomib; first compound 0.8 µM) | relative viability (R406 + Bortezomib; first compound 2.53 µM) | relative viability (R406 + Bortezomib; first compound 8 µM) | relative viability (Daporinad + Bortezomib; first compound 0.0005 µM) | relative viability (Daporinad + Bortezomib; first compound 0.001581 µM) | relative viability (Daporinad + Bortezomib; first compound 0.005 µM) | relative viability (Daporinad + Bortezomib; first compound 0.01581 µM) | relative viability (R406 + Crizotinib; first compound 0.08 µM) | relative viability (R406 + Crizotinib; first compound 0.8 µM) | relative viability (R406 + Crizotinib; first compound 2.53 µM) | relative viability (R406 + Crizotinib; first compound 8 µM) | relative viability (Daporinad + AZD7762; first compound 0.0005 µM) | relative viability (Daporinad + AZD7762; first compound 0.001581 µM) | relative viability (Daporinad + AZD7762; first compound 0.005 µM) | relative viability (Daporinad + AZD7762; first compound 0.01581 µM) | relative viability (R406 + Crizotinib; first compound 0.253 µM) |
| --- | --- | --- | --- | --- | --- | --- | --- | --- | --- | --- | --- | --- | --- | --- | --- | --- | --- | --- |
| NCI-H1703 | 0.451 | 0.32 | 0.588 | 0.183 | 0.167 | 0.403 | 0.382 | 0.422 | 0.196 | 0.623 | 0.662 | 0.199 | 0.129 | 0.134 | 0.123 | 0.155 | 0.142 | – |
| NCI-H1734 | 0.828 | 1.16 | 1.05 | 0.344 | 0.269 | 0.937 | 0.967 | 0.888 | 0.333 | 0.707 | 0.654 | 0.542 | 0.292 | 0.546 | 0.521 | 0.51 | 0.328 | 0.814 |
| NCI-H1755 | 0.994 | 1 | 0.974 | 0.748 | 0.571 | 0.928 | 0.969 | 0.935 | 0.971 | 0.81 | 0.861 | 0.641 | 0.188 | 0.429 | 0.43 | 0.462 | 0.5 | 0.954 |
| NCI-H1792 | 0.981 | 0.909 | 1.04 | 0.851 | 0.861 | 0.924 | 0.98 | 0.711 | 1 | 0.842 | 1.03 | 0.925 | 0.884 | 0.55 | 0.702 | 0.756 | 0.955 | 1.03 |
| NCI-H1915 | 0.963 | 1.01 | 0.985 | 0.79 | 0.898 | 0.987 | 1.05 | 0.961 | 0.883 | 0.898 | 0.959 | 0.782 | 0.874 | 0.667 | 0.742 | 0.716 | 0.71 | 0.975 |
| NCI-H1975 | 0.444 | 0.39 | 0.401 | 0.162 | 0.178 | 0.397 | 0.395 | 0.332 | 0.402 | 0.949 | 0.977 | 0.46 | 0.221 | 0.61 | 0.752 | 0.729 | 0.747 | 1.13 |
| NCI-H1993 | 1.04 | 1.12 | 1.11 | 0.544 | 0.6 | 0.919 | 1.21 | 1.09 | 1.12 | 0.933 | 0.809 | 0.75 | 0.661 | 0.645 | 0.774 | 0.787 | 0.962 | 0.866 |
| NCI-H2085 | 0.996 | 1.14 | 1.1 | 0.708 | 0.775 | 1 | 1.12 | 1.08 | 1.17 | 0.841 | 0.785 | 0.887 | 0.566 | 0.879 | – | 1.03 | 1.1 | 0.974 |
| NCI-H2087 | 0.815 | 1.02 | 0.847 | 0.428 | 0.751 | 0.676 | 0.644 | 0.868 | 0.662 | 0.825 | 0.899 | 0.983 | 0.936 | 1.21 | 1.41 | 1.37 | 1.17 | 1.26 |
| NCI-H2126 | 1.05 | 1.13 | 1.24 | 1.03 | 1.04 | 1.07 | 1.14 | 1.13 | 1.15 | 0.965 | 1.01 | 1.02 | 0.995 | 1.1 | 0.976 | 0.992 | 1.04 | 1.11 |
| NCI-H2347 | 1.07 | 1.25 | 1.19 | 0.815 | 0.642 | 1.15 | 1.03 | 0.922 | 1.41 | 0.588 | 0.889 | 0.556 | 0.487 | 0.785 | 0.814 | 0.726 | 0.547 | 0.538 |
| NCI-H2405 | 1.01 | 1.11 | 1.05 | 0.941 | 0.845 | 1 | 0.772 | 1.02 | 0.612 | 0.769 | 0.861 | 0.78 | 0.638 | 0.786 | 0.856 | 0.792 | 0.357 | 0.989 |
| NCI-H3122 | 0.97 | 0.972 | 1.03 | 1.01 | 0.947 | 1.02 | 1.01 | 1.02 | 1.05 | 0.286 | 0.247 | 0.25 | 0.259 | 0.978 | 1.05 | 1.09 | 0.825 | 0.257 |
| PC-3 [JPC-3] | 0.916 | 0.866 | 0.927 | 0.758 | 0.755 | 0.85 | 0.864 | 0.844 | 0.827 | 1.04 | 1.02 | 0.98 | 0.885 | 0.734 | 0.829 | 0.9 | 0.836 | 1 |
| PC-14 | 0.874 | 0.957 | 0.909 | 0.604 | 0.704 | 0.845 | 0.891 | 0.988 | 0.533 | 0.92 | 0.862 | 0.79 | 0.687 | 0.22 | 0.363 | 0.362 | 0.45 | 1.06 |
| RERF-LC-KJ | 1.15 | 1.23 | 1.26 | 0.932 | 1.01 | 0.996 | 1.05 | 1.45 | 1.26 | 0.762 | 0.875 | 0.81 | 0.771 | – | 1.2 | 1.14 | 1.11 | 0.838 |
